{"source": "patent US20070134744A1", "about": "“Epothilone resistant cell lines” (priority 2000, published 2007)", "key": {"[1]": {"tested_on": "EA150 cells", "assay": "MTS growth inhibition assay", "format": "cell-based", "description": "(§1) Growth inhibition may be analyzed using conventional methods, for example a MTS assay (PROMEGA, Wis.) may be used. In this assay approximately 4000 cells per well are seeded in 96 well plates in MEM supplemented with 10% fetal calf serum and incubated at 37° C. in 5.0% CO2. After 24 hours, dilutions of drug (concentration range used is between 1 nM and 1000 nM) are added and cells are allowed to incubate with drug for an additional 72 hours. The MTS reagent mixed with PMS (MTS:PMS 20:1 according to manufacturer's instructions) is then added and absorbance quantitated using a Thermomax microplate reader system according to conventional methods (Molecular Devices, Sunnyvale, Calif.). […] Six assays per drug per plate are performed.\n(§2) Thus, at least two potential mechanisms of epothilone A resistance may exist—a lower resistance mechanism that is cross-resistant to TAXOL® and a higher, epothilone A specific resistance mechanism."}, "[2]": {"tested_on": "MDA-MB-435 cells", "assay": "MTS growth inhibition assay", "format": "cell-based", "settings": "MTS, 72 hours drug, Table 1", "description": "as §1, §2"}, "[3]": {"tested_on": "EA60 cells", "assay": "MTS growth inhibition assay", "format": "cell-based", "description": "as §1, §2"}, "[4]": {"tested_on": "EA20 cells", "assay": "MTS growth inhibition assay", "format": "cell-based", "description": "as §1, §2"}, "[5]": {"tested_on": "EA10 cells", "assay": "MTS growth inhibition assay", "format": "cell-based", "description": "as §1, §2"}, "[6]": {"tested_on": "KB-31 cells", "assay": "In vitro cell growth inhibition assay (methylene blue)", "format": "cell-based, human", "settings": "read-out: concentration half-maximally inhibiting proliferation", "description": "(§3) Anti-proliferative assays are performed basically as described (Meyer et al., Int. J. Cancer 43:851 (1989)). Briefly, cells are seeded at 1.5×10^3 cells/well into 96-well microtiter plates and allowed to adhere by incubation overnight. Compounds are added in serial dilutions on day 1. The plates are then incubated for an additional 3 days, after which the cells are fixed with 3.3% v/v glutaraldehyde, washed with water and stained with 0.05% w/v methylene blue according to conventional methods. After washing, the dye is eluted with 3% HCl and the optical density measured at 665 nm with a SpectraMax Plus (Molecular Devices, Sunnyvale, Calif.) according to manufacturers instructions. IC50 values are determined by mathematical curve-fitting using the SoftPro2.6.1 program (Molecular Devices, Sunnyvale, Calif.) using the formula (OD treated−OD start)/(OD control−OD start)×100. […] IC50 determinations with the cell line 298/D4/40 are performed in the presence of 40 nM epothilone A.\nThe epothilone resistant cell lines, EpoA320-80C, EpoA320/ND, 298/D4/40, 297/C5/0 and 315/sc5.9 are generated as disclosed above. […] A subclone, 298/D4/40, is adapted to grow in the presence of 40 nM epothilone A administered twice weekly (i.e. at every medium change). […]"}, "[7]": {"tested_on": "EA40 cells", "assay": "MTS growth inhibition assay", "format": "cell-based", "settings": "EA40 cells, MTS, 72 hours drug; Table 1", "description": "as §1, with “performed. […]” for “performed.”\nAs such, epothilone resistant cells would have some degree of cross-resistance to other P-gp substrates that could be reversed by P-gp inhibitors. To investigate this possibility, the cytotoxicity of the P-gp substrates, vincristine, doxorubicine and vinblastine is determined against epothilone A resistant cells using the MTS assay. […] When EA20 and resistant MDA/T0.3 cells are incubated with TAXOL® or epothilone A in the presence of [3′-Desoxy-3′-oxo-MeBmt]^1-[Val]^2-Ciclosporin (PSC-833; a P-gp inhibitor which is disclosed in U.S. Pat. No. 5,525,590), the resistance of MDA/T0.3 cells to TAXOL® is reversed but no effect on the resistance of EA20 to epothilone A is observed."}, "[8]": {"tested_on": "KB-8511 cells", "format": "cell-based, human", "description": "(§4) Data in Table 4 are gathered according to the following methods: Cells (1×10^3) are seeded in 96-well plates and allowed to adhere for 24 hrs. Compounds are then added as two-fold serial dilutions and incubation continued for an additional 72 hrs. Cell numbers at the beginning and at the end of the experiment are estimated by methylene blue staining of cellular protein mass according to conventional methods. The net mass increase of vehicle-treated cells is set as 100% growth. The IC50 is determined as the drug concentration that leads to half-maximal growth inhibition compared to the control. The resistance factor (RF) for a particular drug is calculated by dividing the IC50 determined on the resistant cell line by that determined on the parental KB-31 cells. Data are presented as average±standard deviation (SD) of three separate experiments, except na=not applicable (n<3). Colchicine-selected KB-8511 cells overexpressing P-glycoprotein served as a reference for the classical multi-drug-resistant phenotype."}, "[9]": {"tested_on": "298/D4/40 cells", "format": "cell-based, human", "settings": "298/D4/40 (EpoA selected), 72 hrs, in the presence of 40 nM epothilone A", "description": "as §3, §4"}, "[10]": {"tested_on": "297/C5/0 cells", "format": "cell-based, human", "settings": "297/C5/0 (EpoA selected), 72 hrs, average of three experiments", "description": "as §3, §4"}, "[11]": {"tested_on": "315/sc5.9 cells", "format": "cell-based, human", "description": "as §3, §4"}}, "data": [{"smiles": "C/C(=C\\c1csc(C)n1)[C@@H]1C[C@@H]2O[C@@H]2CCC[C@H](C)[C@H](O)[C@@H](C)C(=O)C(C)(C)[C@@H](O)CC(=O)O1", "note": "[Epothilone A, epothilone A]", "values": [{"measurement": "increase in IC50 over MDA-MB-435 cells", "setting": "[1]", "value": "> 100", "unit": "fold"}, {"measurement": "IC50", "setting": "[1]; MTS, 72 hours drug, Table 1", "value": "> 500", "unit": "nM"}, {"measurement": "IC50", "setting": "[2]", "value": "4 ± 1.8", "unit": "nM"}, {"measurement": "increase in IC50 over MDA-MB-435 cells", "setting": "[3]", "value": 15, "unit": "fold"}, {"measurement": "IC50", "setting": "[3]; MTS, 72 hours drug, Table 1", "value": "82 ± 1.5", "unit": "nM"}, {"measurement": "increase in IC50 over MDA-MB-435 cells", "setting": "[4]", "value": 7, "unit": "fold"}, {"measurement": "IC50", "setting": "[4]; MTS, 72 hours drug, Table 1", "value": "28 ± 3", "unit": "nM"}, {"measurement": "increase in IC50 over MDA-MB-435 cells", "setting": "[5]", "value": 5, "unit": "fold"}, {"measurement": "IC50", "setting": "[5]; MTS, 72 hours drug, Table 1", "value": "18 ± 3.8", "unit": "nM"}, {"measurement": "IC50", "setting": "[6]", "value": 3.2, "unit": "nM"}, {"measurement": "IC50", "setting": "[7]", "value": "36 ± 2", "unit": "nM"}, {"measurement": "RF (resistance factor: IC50 resistant cell line / IC50 parental KB-31)", "setting": "[8]; KB-8511 (Colch selected), 72 hrs, average of three experiments", "value": 0.7}, {"measurement": "resistance profile in words", "setting": "[8]; KB-8511 vs parental KB-31", "value": "retain full activity"}, {"measurement": "RF (resistance factor: IC50 resistant cell line / IC50 parental KB-31)", "setting": "[9]", "value": 71.4}, {"measurement": "RF (resistance factor: IC50 resistant cell line / IC50 parental KB-31)", "setting": "[10]", "value": 44.7}, {"measurement": "RF (resistance factor: IC50 resistant cell line / IC50 parental KB-31)", "setting": "[11]; 315/sc5.9 (EpoB selected), 72 hrs, average of three experiments", "value": 1.2}, {"measurement": "resistance profile in words", "setting": "[11]; 315/sc5.9 vs parental KB-31", "value": "marginal cross-resistance"}]}]}
